IC50 data for 22 molecules are collected here from patent US6472526B1, “Imidazole derivatives having an inhibitory activity for farnesyl transferase and process for preparation thereof” (LG Chemical Ltd., priority 1997, dated 2002).

Test [1] concerns the target T1, Ras farnesyl transferase (Rattus norvegicus, UniProt Q02293+Q04631).
T1 construct: endogenous in cells; host or cells: Rat2 fibroblasts transformed with H-Ras or with an H-Ras/K-Ras C-terminus fusion
In words: In vivo (cellular) inhibitory activity for Ras farnesyl transferase, Rat2 cell line transformed with fused protein of H-Ras substituted with polybasic lysine domain at C-terminus of K-Ras. The test is classed as cell-based. To be noted: Rat2 cell line transformed with H-Ras fused with polybasic lysine domain of K-Ras C-terminus; concentration inhibiting 50% of farnesyl bonding; read-out: K-Ras CIC50. How it is done:
(§1) In the present experiment, Rat2 cell line which expresses C-Harvey-Ras protein having transforming activity and Rat2 cell line (Korean patent application No. 97-14409) which is transformed with fused protein of H-Ras substituted with polybasic lysine domain at C-terminus of K-Ras were used. The experiment was performed by the modified Declue's method (Declue. J. E. et al., Cancer Research, 1991, 51, 712). Hereinafter, the experimental method will be described in more detail.
(§2) 3×10^5 cells of transformed Rat2 fibroblast cell line were sprayed on 60 mm cell cultivation dish and cultivated for 48 hours in a cell incubator at 37° C. and after 50% or more of density was reached, it was treated with the test compounds. The compound according to the present invention dissolved in dimethylsulfoxide (DMSO) was used. 1% concentration of dimethylsulfoxide was used in both control and test groups. After 4 hours from the treatment with the compound, methionine labeled with 150 μCi of radioactive isotope [^35S] per 1 ml of medium was added and after cultivating for 20 hours, the cells were, washed with physiological saline water. The cells were lysed using 1 ml of cold cell lysis buffer solution (50 mM of Sodium HEPES buffer solution containing 5mM of magnesium chloride, 1 mM of DTT, 1% NP 40, 1 mM of EDTA, 1 mM of PMSF, 2 μM of leupeptin, 2 μM of pepstatin A and 2 μM of antipain) and the supernatant wherein the cells were lysed was obtained by high-velocity centrifugation of 12,000 g×5 minutes. The amount of radioisotope in the supernatant was measured and standardized to obtain a quantitative result in immunoprecipitation reaction and then, Y13-259, a monoclonal antibody specifically binding to Ras protein (Furth, M. E. et al., J. Virol, 1982, 43, 294) was added and reacted for 15 hours at 4° C. Protein A(combined with goat anti-murine immunoglobulin antibody)-agarose suspension was added to the solution and reacted for 1 hour at 4° C. and then, to remove the unspecific binding product, immunoprecipitates were washed with a buffer solution (50 mM Tris chloride buffer solution containing 50 mM of sodium chloride, 0.5% of sodium dioxycolate, 0.5% of NP 40 and 0.1% of SDS). The precipitates were added to a buffer solution for electrophoresis and boiled and then, electrophoresis was performed using 13.5% of SDS polyacrylamide gel. After electrophoresis, the gel was fixed and dried. Then, the gel was exposed to X-ray film, developed printed. From the result of the experiment, intensities of band of in combined with or without farnesyl of Ras protein were measured, the concentration of the test compound inhibiting 50% of farnesyl bonding was defined as […], an in vivo Ras farnesyl transferase inhibitory activity.

The target in test [2] is T1, Ras farnesyl transferase. In words: In vivo (cellular) inhibitory activity for Ras farnesyl transferase, Rat2 cell line which expresses C-Harvey-Ras protein. The test is classed as cell-based. The following applies: Rat2 cell line expressing C-Harvey-Ras; concentration inhibiting 50% of farnesyl bonding of Ras protein; read-out: H-Ras CIC50. How it is done: as §1, §2

Test [3] addresses T2, Ras farnesyl transferase (Homo sapiens, UniProt P49354+P49356).
T2 construct: made in house
In words: In vitro inhibitory activity for Ras farnesyl transferase, H-Ras substrate. To be noted: recombinant farnesyl transferase 4.5 nM, Ras substrate protein 1.5 μM, tritium-farnesylpyrophosphate 0.15 μM, 30 minutes at 37° C.; read-out: H-Ras IC50. The test is classed as biochemical. The method, then: In the present experiment, Ras farnesyl transferase produced by genetic recombination techniques according to the improved Pompliano's method (Pompliano et al., Biochemistry, 1992, 31, 3800) was used, and Ras substrate (Ras-CVLS) protein described in Korean Patent Appln. No. 97-14409 was used after it has been purified according to the known method (see, Chung et al., Biochimica et Biophysica Acta, 1992, 278, 1129).
The enzyme reaction was performed in 50 μl of 50 mM Sodium HEPES buffer solution containing 25 mM of potassium chloride, 25 mM of magnesium chloride, 10 mM of DTT and 50 μM of zinc chloride. 1.5 μM of Ras substrate protein, 0.15 μM of tritium-farnesylpyrophosphate and 4.5 nM of farnesyl transferase were used.
More specifically, in the initial step, farnesyl transferase was added to the above buffer solution, reaction was maintained for 30 minutes at 37° C. and then the reaction was stopped by adding 1 ml of ethanol solution containing 1M HCl. The formed precipitates were adsorbed to GF/B filter using Hopper harvestor(Hopper #FH 225V) for filter-binding, washed with ethanol, and then radioactivity of the dried filter was measured using LKB β counter. Enzyme titer was measured in the unsaturated state of substrate where the concentrations of Ras substrate protein and farnesyl transferase have quantitative relationship. The compound according to the present invention dissolved in dimethyl sulfoxide (DMSO) was added to the reaction solution in an amount of less than 5% of the total reaction solution, and then the enzyme inhibitory activity thereof was measured. The enzyme inhibitory activity was represented by percentage of the amount of farnesyl incorporated into the Ras substrate protein in the presence of the test compound to that in the absence of the test compound. IC50 of the test compound was defined as the concentration at which 50% of the enzyme activity was inhibited.

The target in test [4] is T2, Ras farnesyl transferase. In words: In vitro inhibitory activity for Ras farnesyl transferase, K-Ras substrate. The test is classed as biochemical. To be noted: in vitro farnesyl transferase assay, K-Ras; read-out: K-Ras IC50.

pIC50: −log10 of the molar value.

“1-(1-Decyl-1H-imidazol-5-yl)methyl-3-[N-(2-methoxyethyl)-N-methyl]carbamoyl-4-(naphthalen-1-yl-1H-pyrrole [Compound 119]”: the pIC50 on Ras farnesyl transferase [1] was > 4.52.

For “3-[N-(2-Methoxyethyl)-N-methyl]carbamoyl-4-(naphthalen-1-yl)-1-(1-octyl-1H-imidazol-5-yl)methyl-1H-pyrrole [Compound 118]”, at Ras farnesyl transferase [1], the pIC50 is > 4.40.

Consider “3-[N-(2-Methoxyethyl)N-methyl]carbamoyl-4-(naphthalen-1-yl)-1-(1-pentyl-1H-imidazol-5-yl)methyl-1H-pyrrole [Compound 117]”, for which the pIC50 on Ras farnesyl transferase [1] is > 4.30.

As for `COCCN(C)C(=O)c1cn(Cc2cncn2Cc2ccc3c(c2)OCO3)cc1-c1cccc2ccccc12` [Compound 1, 3-[N-(2-Methoxyethyl)-N-methyl]carbamoyl-1-[1-(3,4-methylenedioxybenzyl)-1H-imidazol-5-ylmethyl]-4-(naphthalen-1-yl)-1H-pyrrole], the pIC50 on Ras farnesyl transferase [2] was 7.60; on Ras farnesyl transferase [3], 8.96; at Ras farnesyl transferase [4], 8.46.

On to `N#Cc1ccc(Cn2cncc2Cn2cc(C(=O)c3ccccc3)c(-c3cccc4ccccc34)c2)cc1` [Compound 75], for which the pIC50 is 6.70 on Ras farnesyl transferase [2], 8.30 on Ras farnesyl transferase [3] and 6.80 at Ras farnesyl transferase [4].

Turning to `N#Cc1ccc(Cn2cncc2Cn2cc(C(=O)c3ccc(Br)cc3)c(-c3cccc4ccccc34)c2)cc1` [Compound 77], the pIC50 at Ras farnesyl transferase [2] is 7.00; on Ras farnesyl transferase [3], 8.40; on Ras farnesyl transferase [4], 6.92.

For `CN1CCN(C(=O)c2cn(Cc3c[nH]cn3)cc2-c2cccc3ccccc23)CC1` [Compound 89], the pIC50 is 7.85 at Ras farnesyl transferase [3], 5.00 to 7.00 at Ras farnesyl transferase [4] and 4.00 to 5.00 on Ras farnesyl transferase [1].

`COCCN(C)C(=O)c1cn(Cc2cncn2Cc2ccc(C#N)cc2)cc1-c1cccc2ccccc12` [Compound 110, 1-[1-(4-Cyanobenzyl)-1H-imidazol-5-yl]methyl-3-[N-(2-methoxyethyl)-N-methyl]carbamoyl-4-(naphthalen-1-yl)-1H-pyrrole]: the pIC50 was 8.10 at Ras farnesyl transferase [2], 9.22 at Ras farnesyl transferase [3] and 8.82 on Ras farnesyl transferase [4].

For `O=C(c1cn(Cc2cncn2Cc2ccc(Br)cc2)cc1-c1cccc2ccccc12)N1CCOCC1` [Compound 112, 1-[1-(4-Bromobenzyl)-1H-imidazol-5-yl]methyl-3-(morpholin-4yl)carbonyl-4-(naphthalen-1-yl)-1H-pyrrole], the pIC50 at Ras farnesyl transferase [2] is 7.82; at Ras farnesyl transferase [3] it was 8.40; at Ras farnesyl transferase [4], 8.22.

`COCCN(C)C(=O)c1cn(Cc2cncn2CCC(C)C)cc1-c1cccc2ccccc12` [Compound 120]: the pIC50 at Ras farnesyl transferase [1] was > 4.70.

Consider `COCCN(C)C(=O)c1cn(Cc2cncn2CCOC)cc1-c1cccc2ccccc12` [Compound 121, 1-[1-(2-Methoxyethyl)-1H-imidazol-5-yl]methyl-3-[N-(2-methoxyethyl)-N-methyl]carbamoyl-4-(naphthalen-1-yl)-1H-pyrrole], for which the pIC50 on Ras farnesyl transferase [1] was > 4.40.

`COCCCn1cncc1Cn1cc(C(=O)N(C)CCOC)c(-c2cccc3ccccc23)c1` [Compound 122]: the pIC50 on Ras farnesyl transferase [1] is > 4.52.

For `CCOCCCn1cncc1Cn1cc(C(=O)N(C)CCOC)c(-c2cccc3ccccc23)c1` [Compound 123, 1-[1-(3-Ethoxypropyl)-1H-imidazol-5-yl]methyl-3-[N-(2-methoxyethyl)-N-methyl]carbamoyl-4-(naphthalen-1-yl)-1H-pyrrole], the pIC50 at Ras farnesyl transferase [1] was > 4.40.

With `COCCN(C)C(=O)c1cn(Cc2cncn2CCCOC(C)C)cc1-c1cccc2ccccc12` [Compound 124, 1-[1-(3-Isopropoxypropyl)-1H-imidazol-5-yl]methyl-3-[N-(2-methoxyethyl)-N-methyl]carbamoyl-4(naphthalen-1-yl)-1H-pyrrole], the pIC50 at Ras farnesyl transferase [1] is > 4.70.

Regarding `CCOC(=O)c1nc(Cc2cnc[nH]2)sc1-c1cccc2ccccc12` [Compound 144, 4-Ethoxycarbonyl-2-(1H-imidazol-5-ylmethyl)-5-(naphthalen-1-yl)thiazole], the pIC50 at Ras farnesyl transferase [3] was 6.42; on Ras farnesyl transferase [1], < 4.30.

For the molecule `O=C(c1nc(Cc2cncn2Cc2ccc(Cl)cc2)sc1-c1cccc2ccccc12)N1CCOCC1` [Compound 146, 2-[1-(4-Chlorobenzyl)-1H-imidazol-5-ylmethyl]-4-(morpholin-4-yl)carbonyl-5-(naphthalen-1-yl)thiazole], the pIC50 on Ras farnesyl transferase [3] is 7.05; at Ras farnesyl transferase [4], 5.00.

As to `O=C(c1sc(Cc2cncn2Cc2ccc(Cl)cc2)nc1-c1cccc2ccccc12)N1CCOCC1` [Compound 149, 2-[1-(4-Chlorobenzyl)-1H-imidazol-5-ylmethyl]-5-(morpholin-4-yl)carbonyl-4-(naphthalen-1-yl)thiazole], the pIC50 was 5.30 at Ras farnesyl transferase [3], < 4.30 on Ras farnesyl transferase [4] and < 4.30 on Ras farnesyl transferase [1].

On to `COCCN(C)C(=O)c1sc(Cc2cncn2CC2CCN(C(=O)OCc3ccccc3)CC2)nc1-c1cccc2ccccc12` [Compound 151], for which the pIC50 is 5.34 at Ras farnesyl transferase [3], < 4.30 on Ras farnesyl transferase [4] and < 4.30 at Ras farnesyl transferase [1].

In the case of `O=C(OCc1ccccc1)N1CCC(Cn2cncc2Cn2cc(C(=O)N3CCOCC3)c(-c3cccc4ccccc34)n2)CC1` [Compound 158, 1-[1-(1-Benzyloxycarbonyl-piperidin-4-ylmethyl)-1H-imidazol-5-ylmethyl]-4-(morpholin-4-yl)carbonyl-3-(naphthalen-1-yl)-1H-pyrazole], the pIC50 at Ras farnesyl transferase [3] was 6.60; at Ras farnesyl transferase [4], 5.70; on Ras farnesyl transferase [1], 4.52.

For the molecule `O=C(c1cn(Cc2cncn2Cc2ccc(Cl)cc2)nc1-c1cccc2ccccc12)N1CCOCC1` [Compound 161, 1-[1-(4-Chlorobenzyl)-1H-imidazol-5-ylmethyl]-4-(morpholin-4-yl)carbonyl-3-(naphthalen-1-yl)-1H-pyrazole], the pIC50 on Ras farnesyl transferase [3] was 6.70; at Ras farnesyl transferase [4] it was 5.70.

As to `N#Cc1ccc(Cn2cncc2Cn2cc(C(=O)N3CCOCC3)c(-c3cccc4ccccc34)n2)cc1` [Compound 162, 1-[1-(4-Cyanobenzyl)-1H-imidazol-5-ylmethyl]-4-(morpholin-4-yl)carbonyl-3-(naphthalen-1-yl)-1H-pyrazole], the pIC50 on Ras farnesyl transferase [3] is 6.60; on Ras farnesyl transferase [4], 5.70.

For `Cn1cncc1Cn1cc(C(=O)N2CCOCC2)c(-c2cccc3ccccc23)n1` [Compound 163, 1-(1-Methyl-1H-imidazol-5-ylmethyl)-4-(morpholin-4-yl)carbonyl-3-(naphthalen-1-yl)-1H-pyrazole], the pIC50 on Ras farnesyl transferase [3] is 6.82; at Ras farnesyl transferase [4], 5.00; on Ras farnesyl transferase [1], < 4.30.
